{"source": "patent US6331570A", "about": "“Active enantiomer of RARγ-specific agonist” (Bristol-Myers Squibb Company, priority 1999, dated 2001)", "key": {"papillomas": {"system": "papillomas", "test": "two-stage system of mouse skin carcinogenesis (DMBA initiator, TPA promoter)", "assay_type": "in vivo", "details": "i.p."}, "[1]": {"details": "prior art / general statement; cited from earlier work"}, "[2]": {"details": "13-cis-retinoic acid 50 mg/kg (dose from text), 10 weeks monitoring"}}}
{"compound": "CC1=C(/C=C/C(C)=C/C=C/C(C)=C\\C(=O)O)C(C)(C)CCC1", "note": "[13-cis-retinoic acid]", "values": [{"measurement": "number and size of papillomas", "setting": "papillomas; 50 mg/kg, 10 weeks", "result": "inactive"}, {"measurement": "Tumor Burden (mean tumor size per mouse)", "setting": "papillomas; [2]", "result": 6.8, "unit": "mm^3"}, {"measurement": "Tumor Incidence (% of mice with tumors)", "setting": "papillomas; [2]", "result": 80, "unit": "%"}, {"measurement": "liver toxicity", "setting": "[1]", "result": "adverse side-effects on long-term use such as liver toxicity"}]}
